Source: patent US9321774B2, “Pyrrolobenzodiazepines” (MEDIMMUNE LIMITED, priority 2012, dated 2016)
In brackets after ≈: the same amount, converted by molar mass. Read-outs that look alike come from different tables or passages of the source.

How the values were obtained:
Test in all cases: CLSI broth microplate assay, MIC
Type in all cases: cell-based
MRSA strain EMRSA-15 = settings: Staphylococcus aureus, read-out: Minimum inhibitory concentration (MIC mg/L) EMRSA-15
MRSA strain BB568 = settings: Staphylococcus aureus, read-out: Minimum inhibitory concentration (MIC mg/L) BB568
[1] = test system: community-associated MRSA isolate USA300; settings: Staphylococcus aureus, read-out: Minimum inhibitory concentration (MIC mg/L) USA300
E. faecium VRE10 = settings: Enterococcus faecium
MRSA strain EMRSA-16 = settings: Staphylococcus aureus, read-out: Minimum inhibitory concentration (MIC mg/L) EMRSA-16
E. faecalis VRE1 = settings: Enterococcus faecalis
[2] = test system: S. aureus VISA strain Mu50; settings: Staphylococcus aureus, read-out: Minimum inhibitory concentration (MIC mg/L) Mu50

Structure (SMILES) | MIC (MRSA strain EMRSA-15) [mg/L] | MIC (MRSA strain BB568) [mg/L] | MIC [1] [mg/L] | MIC (E. faecium VRE10; VRE10, read-out: Minimum inhibitory concentration (MIC mg/L) VRE10) [mg/L] | MIC (MRSA strain EMRSA-16) [mg/L] | MIC (E. faecalis VRE1; VRE1, read-out: Minimum inhibitory concentration (MIC mg/L) VRE1) [mg/L] | MIC [2] [mg/L] | MIC (MRSA strain EMRSA-15; EMRSA-15, Mueller-Hinton broth, 37° C.) [mg/L] | MIC (MRSA strain BB568; BB568, Mueller-Hinton broth, 37° C.) [mg/L] | MIC (E. faecium VRE10; VRE10, Mueller-Hinton broth, 37° C., read-out: Minimum inhibitory concentration (MIC mg/L) VRE10) [mg/L] | MIC (MRSA strain EMRSA-16; EMRSA-16, Mueller-Hinton broth, 37° C.) [mg/L] | MIC (E. faecalis VRE1; VRE1, Mueller-Hinton broth, 37° C., read-out: Minimum inhibitory concentration (MIC mg/L) VRE1) [mg/L] | MIC ([2]; Mu50, Mueller-Hinton broth, 37° C.) [mg/L]
COC(=O)c1ccc(-c2ccc(NC(=O)CCCOc3cc4c(cc3OC)C(=O)N3CCC[C@H]3C=N4)cc2)s1 [Compound 18, (S)-methyl 5-(4-(4-((7-methoxy-5-oxo-2,3,5,11a-tetrahydro-1H-benzo[e]pyrrolo[1,2-a][1,4]diazepin-8-yl)oxy)butanamido)phenyl)thiophene-2-carboxylate, reference compound] | > 32 | > 32 | 32 (≈ 58.4 µM) | 16 (≈ 29.2 µM) | > 32 | > 32 | > 32 |  |  |  |  |  | 
COc1cc2c(cc1OCCCC(=O)Nc1cc(C(=O)Nc3ccc4sccc4c3)n(C)c1)N=C[C@@H]1CCCN1C2=O [Compound 27, (S)—N-(benzo[b]thiophen-5-yl)-4-(4-((7-methoxy-5-oxo-2,3,5,11a-tetrahydro-1H-benzo[e]pyrrolo[1,2-a][1,4]diazepin-8-yl)oxy)butanamido)-1-methyl-1H-pyrrole-2-carboxamide] |  |  | 0.06 to 0.125 (≈ 0.102 to 0.213 µM) |  |  |  |  | 0.03 (≈ 0.0512 µM) | 0.125 (≈ 0.213 µM) | 0.03 (≈ 0.0512 µM) | 0.125 (≈ 0.213 µM) | 0.125 (≈ 0.213 µM) | < 0.03
